According to patent US20060132952A1, “Enhanced data storage and retrieval devices and systems and methods for utilizing same” (priority 2002, published 2006):

Key:
[1] = Phenyl salicylate solubility in conditioned (neon lamp) vs unconditioned acetone at room temperature (22° C.); assay type: physicochemical; conditions: equilibrated about 20 hours
Procedure: Acetone (about 1 ml) was pipetted into small glass test tubes and stoppers placed in the tube. Tubes were placed under a neon lam; (about 8 m/cm^2) in an otherwise dark room for about 1-5 hours at about 28° C. ambient temperature. Tubes were also placed simultaneously in an incubator at 28° C. for about 1.5 hours.
Phenyl solicylate (about 3.50 grams) was added to each tube leaving a layer undissolved on the bottom of each tube. The solutions were allowed to equilibrate (about 20 hours). Solution was filtered over the crystals and 0.500 ml pipetted into fresh tubes. After the acetone evaporated, dry weights of phenyl solicylate per ml dissolved in conditioned and unconditioned acetone were determined.

[2] = Sucrose solubility in conditioned (sodium lamp) vs control water at room temperature (22° C.); assay type: physicochemical
Procedure: Beaker “II” was placed under another sodium lamp 12 as like Beaker “KK”; and Beaker “JJ” was placed in the same incubator as Beaker “LL”. […] Specifically, Beaker “GG” was placed under another sodium lamp 12 as like Beaker “KK” and Beaker “II”; and Becker “HH” was placed into the same incubator as Beaker “LL” and “II”.

| Structure (SMILES) | Average amount dissolved in unconditioned acetone ([1]; acetone kept in incubator at 28° C.) | Average amount dissolved in conditioned acetone ([1]; acetone under neon lamp) | Weight (dry sucrose weight per 100 ml solution) ([2]; GG, water under sodium lamp one hour, 23.5° C.) | Weight (dry sucrose weight per 100 ml solution) ([2]; HH, control water 1 hour, 23° C.) | Weight (dry sucrose weight per 100 ml solution) ([2]; II, water under sodium lamp two hours, 23.5° C.) | Weight (dry sucrose weight per 100 ml solution) ([2]; JJ, control water 2 hours, 23.5° C.) | Weight (dry sucrose weight per 100 ml solution) ([2]; KK, water under Na lamp three hours, 23.5° C.) | Weight (dry sucrose weight per 100 ml solution) ([2]; LL, control water 3 hours, 23.5° C.) | more sucrose dissolved by conditioned water than by untreated control water ([2]; two hours exposure of water to sodium lamp) |
| --- | --- | --- | --- | --- | --- | --- | --- | --- | --- |
| O=C(Oc1ccccc1)c1ccccc1O [phenyl salicylate] | 0.68 g/mL | 0.78 g/mL | – | – | – | – | – | – | – |
| OC[C@H]1O[C@@](CO)(O[C@H]2O[C@H](CO)[C@@H](O)[C@H](O)[C@H]2O)[C@@H](O)[C@@H]1O [Sucrose] | – | – | 49 g/100 ml | 49 g/100 ml | 47 g/100 ml | 44 g/100 ml | 46 g/100 ml | 49 g/100 ml | about 7% |
